Key:
[1] = test system: RIDD (IRE1α-dependent mRNA decay); assay: Real-time PCR of RIDD mRNA targets in INS-1 cells overexpressing IRE1α (Dox); format: cell-based, rat; settings: 20 μM, 5 ng/mL Dox
Procedure: RNA Isolation, Quantitative Real-Time PCR, and Primers
INS-1 or isogenic IRE1α-overexpressing INS-1 cells were plated onto Poly-D-Lysine coated tissue culture plate and grown for 48 hrs. Inhibitors or DMSO were added to the media and incubated for 1 hour at 37° C. with 5% CO2 prior to addition of ER stress agents or Dox as indicated. RNA was isolated from whole cells using either QIAGEN RNeasy Mini kits or Trizol (Invitrogen) and reverse transcribed as above to obtain total cDNA. Then, XBP-1 primers were used to amplify an XBP-1 amplicon spanning the 26 nt intron from the cDNA samples in a regular 3-step PCR. Thermal cycles were: 5 min at 95° C., 30 cycles of 30 s at 95° C., 30 s at 60° C., and 1 min at 72° C., followed by 72° C. for 15 min, and hold at 4° C. Primers used for XBP-1 mRNA splicing were as follows: sense primer XBP1.3 S (5′ […]-3′ (SEQ ID NO:2)) and antisense primer XBP1.2AS (5′-[…]-3′ (SEQ ID NO:3)). PCR fragments were then digested by PstI, resolved on 3% agarose gels, stained with EtBr and quantified by densitometry using ImageJ (NIH). For standard mRNA detection, generally […] total RNA was reverse transcribed using the QuantiTect Reverse Transcription Kit (QIAGEN). For qPCR, we used SYBR green (QIAGEN) and StepOnePlus Real-Time PCR System (Applied Biosystems). Thermal cycles were: 5 min at 95° C., 40 cycles of 15 sec at 95° C., 30 sec at 60° C. Gene expression levels were normalized to Beta Actin. Primers used for qPCR of RIDD targets were as follows: Beta Actin Fwd: 5′-[…]-3′ (SEQ ID NO:4), Beta Actin Rev: 5′-[…]-3′ (SEQ ID NO:5), Insulin 1 Fwd: 5′-GTCCTCTGGGAGCCCAAG-3′ (SEQ ID NO:6), Insulin 1 Rev: 5′-ACAGAGCCTCCACCAGG-3′ (SEQ ID NO:7), Insulin 2 Fwd: 5′-ATCCTCTGGGAGCCCCGC-3′ (SEQ ID NO:8), Insulin 2 Rev: 5′-AGAGAGCTTCCACCAAG-3′ (SEQ ID NO:9), Blos1 Fwd: 5′-[…]-3′ (SEQ ID NO:10), and Blos1 Rev: 5′-[…]-3′ (SEQ ID NO:11).
Real-Time PCR (Q-PCR) used SYBR green and Step OnePlus Real-Time PCR System (Applied Biosystems). Thermal cycles were: 5 min at 95° C., 40 cycles of 15 s at 95° C., 30 s at 60° C. Gene expression levels were normalized to GAPDH. Q-PCR Sense/antisense primers used: Rat GAPDH, 5′-[…]-3′ (SEQ ID NO:14) and 5′-[…]-3′ (SEQ ID NO:15); Rat Ins1, 5′-GTCCTCTGGGAGCCCAAG-3′ (SEQ ID NO:6) and 5′-ACAGAGCCTCCACCAGG-3′ (SEQ ID NO:7); Rat Pdia4, 5′-CGTCTCGCCCTGATTCGT-3′ (SEQ ID NO:16) and 5′-[…]-3′ (SEQ ID NO:17); Rat Blos1, 5′-[…]-3′ (SEQ ID NO:18) and 5′-TGTCCAGTTCGATGCTCCG-3′ (SEQ ID NO:19).
Real-time PCR for FIGS. 34A-34F: Real-Time PCR (Q-PCR) used SYBR green and Step OnePlus Real-Time PCR System (Applied Biosystems). Thermal cycles were: 5 min at 95° C., 40 cycles of 15 s at 95° C., 30 s at 60° C. Gene expression levels were normalized to GAPDH. Q-PCR Sense/antisense primers used: Rat GAPDH, 5′-[…]-3′ (SEQ ID NO:20) and 5′-[…]-3′ (SEQ ID NO:21); Rat Ins1, 5′-GTCCTCTGGGAGCCCAAG-3′ (SEQ ID NO:6) and 5′-ACAGAGCCTCCACCAGG-3′ (SEQ ID NO:7); Rat Ins2, 5′-ATCCTCTGGGAGCCCCGC-3′ (SEQ ID NO:8) and 5′-AGAGAGCTTCCACCAAG-3′ (SEQ ID NO:9); Rat Pdia4, 5′-[…]-3′(SEQ ID NO:22) and 5′-[…]-3′ (SEQ ID NO:23); Rat Blos1, 5′-[…]-3′ (SEQ ID NO:18) and 5′-TGTCCAGTTCGATGCTCCG-3′ (SEQ ID NO:19).

[2] = test system: INS-1 cells expressing IRE1α under Dox control; assay: Apoptosis in IRE1α-overexpressing INS-1 cells (cleaved caspase 3 immunoblot, Annexin V staining); format: cell-based, rat; settings: 20 μM, 5 ng/mL Dox
Procedure: Western Blotting and Antibodies
For protein analysis, cells were lysed into modified RIPA buffer (50 mM Tris, 150 mM NaCl, 10 mM NaF, 1% NP40 (v/v), 0.25% sodium deoxycholate (w/v), 5% glycerol (v/v), pH 7.8) containing protease inhibitor (Pierce Protease Inhibitor Tablets and 1 mM PMSF) and phosphatase inhibitor (Phosphatase inhibitor cocktail 2 and 3, Sigma Aldrich) prior to gel loading. Western blots were performed using Any kD™ Mini-PROTEAN® TGX™ Precast protein gels (BioRad). Gels were ran using Tris-Glycine running buffer (25 mM Tris pH 8.6, 192 mM glycine, 0.1% SDS (w/v)) at 180 V. Gels were transferred to nitrocellulose paper using the TransBlot Turbo System (BioRad) at 25 V, 2.5 A for 15 minutes. Nitrocellulose blots were blocked for 30 minutes at room temperature with Odyssey blocking buffer (Li-Cor). Primary antibodies were diluted into blocking buffer and incubated over night at 4° C. Blots were washed 2× with TBST (20 mM Tris pH 7.5, 150 mM NaCl, 0.1% Tween-20) and incubated with near-infrared-dye-conjugated secondary antibodies (Li-Cor) for 1 hour at room temperature. Blots were imaged using a Li-Cor Odyssey IR Imager and quantitated using ImageStudio. The following primary antibodies were used in this study: rabbit anti-IRE1α mAb #14C10 (Cell Signaling, no. 3294), mouse anti-FLAG (DYKDDDDK (SEQ ID NO:24) mAb (Sigma Aldrich, no. F3165), rabbit anti-spliced XBP1 (Cell Signaling, no. 12782), rabbit anti-caspase 3 (Cell Signaling, no. 9662), rabbit anti-cleaved caspase 3 (Cell Signaling, no. 9661), mouse anti-proinsulin (Santa Cruz Biotechnology, no. sc-9168), and rabbit anti-GAPDH (Santa Cruz Biotechnology, no. sc-25778).
For assaying apoptosis by Annexin V staining, cells were plated in 12-well plates overnight. Cells were then treated with various reagents for indicated time periods. On the day of flow cytometry analysis, cells were trypsinized and washed in PBS and resuspended in Annexin V binding buffer with Annexin-V FITC (BD Pharmingen™). Flow cytometry was performed on a Becton Dickinson LSRII flow cytometer.

SMILES	mRNA decay substrates Blos1, Ins1 and Ins2 [1]	Annexin-V positivity (mitochondrial apoptosis assay) [2]	generation of cleaved caspase 3 [2]
O=S(=O)(CC(F)(F)F)Nc1ccc(Oc2ncccc2-c2ccnc(N[C@H]3CCCNC3)n2)c2ccccc12 (stereo in doubt) [PAIR1, 2,2,2-trifluoro-N-(4-(3-(2-(piperidin-3-ylamino)pyrimidin-4-yl)pyridin-2-yloxy)naphthalen-1-yl)ethanesulfonamide]	rescued	significant cytoprotective efficacy	markedly reduced
O=S(=O)(CCC(F)(F)F)Nc1ccc(Oc2ncccc2-c2ccnc(NC3CCCNC3)n2)c2ccccc12 (stereo not drawn) [KIRA9, 3,3,3-trifluoro-N-(4-(3-(2-(piperidin-3-ylamino)pyrimidin-4-yl)pyridin-2-yloxy)naphthalen-1-yl)propane-1-sulfonamide]	rescued	significant cytoprotective efficacy	markedly reduced
